The record followed here is ChEMBL document CHEMBL1201862, “PubChem BioAssay data set” (2004).

Calls of active or inactive are those of the source.

One may read the IC50 as the concentration that gives 50% inhibition. One may read the EC50 as the concentration that produces a half-maximal response. Broadly, the AC50 is the concentration at which the activity in the assay is half-maximal.

Data set [1] has as its target 26S proteasome non-ATPase regulatory subunit 14 (Homo sapiens, UniProt O00487). Briefly: inhibition of proteasome subunit RPN11 – biochemical, fluorescence polarization, uHTS hits, confirmation (AID 602368). It counts as functional.
The target of data set [2] is 72 kDa type IV collagenase (Homo sapiens, UniProt P08253). Description: Dose Response validation of uHTS RPN11 inhibitor hits using a MMP-2 Fluorescence assay. It counts as functional.
The target of data set [3] is Prothrombin (Bos taurus, UniProt P00735). Description: thrombin inhibition, dose response, biochemical, fluorescence polarization, uHTS hits (AID 602369). It is filed as functional. A general note: Fluorescence polarisation rises when a labelled molecule tumbles more slowly, as on binding a larger partner.
Data set [4] is described as follows: cytotoxicity in KRAS-transformed pancreatic duct cells, primary screen, cell-based, fluorescence, HTS (AID 431).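 Further: cell line used: HPDE-C7K.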 It counts as functional. The following applies: Homo sapiens.
Data set [5] is described as follows: HepG2 cell cytotoxicity, dose response, cytotoxicity control for Shn3 inhibitor project, CellTiter-Glo, cherry-picked (AID 624134). It is filed as functional, cell-based. For orientation: ATP-based viability assays read luminescence as a measure of living cells.
Data set [6] relates to HEK293. Description: inhibitors of LMP1-driven NF-kB reporter, dose response, cell-based, HEK293, luciferase, cherry-pick (AID 588343). It counts as functional. The following applies: Homo sapiens.
Data set [7] in a line: Shn3 3'UTR reporter inhibitors, dose response, cell-based, Clone20 osteoblasts, firefly luciferase, cherry-picked (AID 624132).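 Further: firefly luciferase luminescence from reporter carrying the Shn3 3'UTR in osteoblasts.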 It counts as functional.
A short description of data set [8]: cytotoxicity in HPDE-C7 cells, cell-based, fluorescence, HTS (AID 430). It is filed as functional. The following applies: Homo sapiens.
In data set [9] the test system is INS1. Briefly: beta cell apoptosis inhibitors, cytokine rescue, dose response, luminescence, retest (AID 449756).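 Further: cell death triggered by IL-1 beta plus TNF-alpha plus IFN-gamma mixture; protective hits raise ATP signal compared with cytokine alone wells.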 It is filed as functional, cell-based. The following applies: Rattus norvegicus.
The nature of data set [10]: control 3'UTR Renilla luciferase suppression, dose response, counter-screen for Shn3 inhibitor project, cell-based, Clone20-Shn3RL, cherry-picked (AID 624133). It is filed as functional. In general terms: The purpose of a counterscreen is to sort out artefacts and off-target activity.
Data set [11] has as its target Paired box protein Pax-8 (Homo sapiens, UniProt Q06710). Description: inhibitors of PAX8-driven TPO luciferase reporter, dose response, RMG-I cells, cherry-pick (AID 687027).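 Further: luciferase reporter driven by Pax8 target thyroperoxidase promoter measured by SteadyGlo luminescence.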 It counts as functional, cell-based.
The nature of data set [12]: cytotoxicity in HEK-293T cells, dose response, cytotoxicity control for TCR NF-kB inhibitor project, luminescence, T-cell screen hits (AID 489026).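 Further: cells exposed to compound about 14 hours before the viability readout.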 It counts as functional, cell-based.
Data set [13] deals with T1, Microphthalmia-associated transcription factor (Homo sapiens, UniProt O75030).
T1 sequence (O75030 whole entry): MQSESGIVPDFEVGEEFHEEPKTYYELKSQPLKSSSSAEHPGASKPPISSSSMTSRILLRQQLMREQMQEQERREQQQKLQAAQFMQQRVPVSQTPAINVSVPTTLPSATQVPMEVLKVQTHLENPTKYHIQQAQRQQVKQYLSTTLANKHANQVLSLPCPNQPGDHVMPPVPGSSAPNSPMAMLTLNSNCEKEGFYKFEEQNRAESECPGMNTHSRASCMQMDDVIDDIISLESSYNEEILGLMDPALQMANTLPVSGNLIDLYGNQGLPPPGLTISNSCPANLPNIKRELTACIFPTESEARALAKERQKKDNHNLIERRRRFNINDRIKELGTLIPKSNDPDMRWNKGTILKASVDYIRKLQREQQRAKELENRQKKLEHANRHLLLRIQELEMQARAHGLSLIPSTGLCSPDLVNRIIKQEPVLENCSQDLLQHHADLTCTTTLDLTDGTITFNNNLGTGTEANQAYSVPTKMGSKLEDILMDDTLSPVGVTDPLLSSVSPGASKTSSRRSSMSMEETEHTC
Description: TRPM1 promoter luciferase signal decrease, dose response, MITF inhibitor project, cell-based, SK-MEL-5, cherry-picked, set 3 (AID 493073).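 Further: SK-MEL-5 melanoma cells with luciferase driven by the MITF target TRPM1 promoter.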 It counts as functional.

Data set [14] concerns the target Cytochrome P450 2C9 (Homo sapiens, UniProt P11712).
Data set [15] has as its target Cytochrome P450 3A4 (Homo sapiens, UniProt P08684).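 Further: CYP3A4 tested as one member of a cytochrome P450 panel screen.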
Data set [16] has as its target Cytochrome P450 2C19 (Homo sapiens, UniProt P33261). Briefly: Cytochrome panel assay with activity outcomes. Panel member name: p450-cyp2c19 Compounds with AC50 equal or less than 10 uM are considered active. It is filed as functional. The following applies: read-out: AC50.
Data set [17] addresses Induced myeloid leukemia cell differentiation protein Mcl-1 (Homo sapiens, UniProt Q07820). It is filed as functional.
Data set [18] concerns the target T2, Ubiquitin-conjugating enzyme E2 N (Homo sapiens, UniProt P61088).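 Further: Dose-response confirmation in a TR-FRET assay detecting UBC13-driven polyubiquitin chain formation, inhibition measured.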
T2 sequence (P61088 whole entry): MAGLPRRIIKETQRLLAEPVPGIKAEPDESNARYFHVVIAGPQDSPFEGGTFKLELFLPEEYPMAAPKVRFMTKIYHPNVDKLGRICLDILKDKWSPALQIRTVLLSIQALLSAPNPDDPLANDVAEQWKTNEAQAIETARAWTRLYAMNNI
It counts as functional.

The target of data set [19] is DNA dC->dU-editing enzyme APOBEC-3A (Homo sapiens, UniProt P31941). Briefly: Dose Response confirmation of small molecule APOBEC3A DNA Deaminase Inhibitors via a fluorescence-based single-stranded DNA deaminase assay. [Related pubchem assays (depositor defined):AID493011, AID493024]. It counts as functional.
Data set [20] deals with DNA dC->dU-editing enzyme APOBEC-3G (Homo sapiens, UniProt Q9HC16). It counts as functional.
Data set [21] is described as follows: inhibitors of SNCA 5'UTR-driven reporter translation, confirmation, H4 neuroglioma cells, luminescence (AID 1988). It is filed as functional, cell-based.
The nature of data set [22]: Luminescence Cell-Based Dose Response HTS to Identify Inhibitors of 5'UTR Stem-Loop Driven Prion Protein mRNA Translation in H4 Neuroglioblastoma Cells. [Related pubchem assays: 1827 (Project Summary), 1813 (Primary HTS)]. It counts as functional.
The nature of data set [23]: inhibitors of firefly luciferase expression or activity, dose response, H4 neuroglioma cells, luminescence (AID 1990). It counts as functional, cell-based.
Data set [24] deals with Luciferin 4-monooxygenase (Photinus pyralis, UniProt P08659). Description: firefly luciferase enzyme inhibitors, dose response, biochemical, luminescence (AID 1891).
The nature of data set [25]: Luminescence Cell-Based Dose Confirmation HTS to Identify Inhibitors of Platelet Dense Granule Release. [Related pubchem assays: 1663 (Primary HTS), 1678 (Summary of Project)]. It is filed as functional.
The target in data set [26] is Heat shock protein HSP 90-alpha (Homo sapiens, UniProt P07900). It is filed as functional, organism-based.
The target of data set [27] is T3, Heat shock factor protein 1 (Mus musculus, UniProt P38532).
T3 sequence (P38532 whole entry): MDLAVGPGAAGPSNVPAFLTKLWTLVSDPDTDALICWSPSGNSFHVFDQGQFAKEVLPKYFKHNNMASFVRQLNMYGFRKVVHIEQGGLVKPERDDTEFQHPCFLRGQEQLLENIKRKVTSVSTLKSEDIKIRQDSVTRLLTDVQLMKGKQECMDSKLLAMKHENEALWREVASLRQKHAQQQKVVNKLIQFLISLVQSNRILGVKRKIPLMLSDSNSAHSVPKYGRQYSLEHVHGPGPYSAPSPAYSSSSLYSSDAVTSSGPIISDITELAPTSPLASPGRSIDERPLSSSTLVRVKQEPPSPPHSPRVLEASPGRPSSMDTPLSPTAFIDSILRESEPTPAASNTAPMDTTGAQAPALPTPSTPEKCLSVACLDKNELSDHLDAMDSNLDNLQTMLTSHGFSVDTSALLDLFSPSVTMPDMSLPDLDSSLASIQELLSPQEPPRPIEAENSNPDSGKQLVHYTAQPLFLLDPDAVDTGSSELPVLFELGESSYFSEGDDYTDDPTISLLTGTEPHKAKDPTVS
Briefly: HSF1 potentiators in luciferase reporter cells, confirmation, cell-based, NIH3T3, luminescence, dose retest (AID 435004).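 Further: stress induced by proteasome inhibitor MG132 added 30 min after compound; luciferase reporter driven by HSF1 response element in NIH3T3 cells; actives raise luminescence as potentiators of the MG132 stress response.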 It counts as functional.

Cytochrome P450 2C9, sequence (P11712 whole entry): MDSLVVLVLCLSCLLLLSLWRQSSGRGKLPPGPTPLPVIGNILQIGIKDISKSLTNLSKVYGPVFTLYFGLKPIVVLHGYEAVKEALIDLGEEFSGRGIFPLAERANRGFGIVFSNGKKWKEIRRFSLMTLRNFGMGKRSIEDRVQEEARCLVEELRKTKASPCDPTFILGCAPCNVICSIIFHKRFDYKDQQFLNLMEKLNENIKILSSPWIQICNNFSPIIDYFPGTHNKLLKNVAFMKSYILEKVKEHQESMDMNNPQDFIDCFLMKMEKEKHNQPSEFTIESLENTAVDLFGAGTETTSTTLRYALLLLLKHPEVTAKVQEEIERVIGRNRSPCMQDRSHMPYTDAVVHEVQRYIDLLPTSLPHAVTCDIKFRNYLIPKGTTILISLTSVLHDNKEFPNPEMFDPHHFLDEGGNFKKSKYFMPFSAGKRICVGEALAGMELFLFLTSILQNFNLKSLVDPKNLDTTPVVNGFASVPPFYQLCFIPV
26S proteasome non-ATPase regulatory subunit 14, sequence (O00487 whole entry): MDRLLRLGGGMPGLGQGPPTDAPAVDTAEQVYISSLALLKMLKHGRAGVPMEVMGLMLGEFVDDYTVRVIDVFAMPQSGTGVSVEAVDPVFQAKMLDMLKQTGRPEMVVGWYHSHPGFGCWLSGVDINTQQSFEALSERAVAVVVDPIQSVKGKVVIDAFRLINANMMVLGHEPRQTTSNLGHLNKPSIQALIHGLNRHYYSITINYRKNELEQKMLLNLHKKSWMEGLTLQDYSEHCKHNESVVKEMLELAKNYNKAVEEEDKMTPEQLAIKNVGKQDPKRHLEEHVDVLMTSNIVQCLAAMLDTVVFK
72 kDa type IV collagenase, sequence (P08253 whole entry): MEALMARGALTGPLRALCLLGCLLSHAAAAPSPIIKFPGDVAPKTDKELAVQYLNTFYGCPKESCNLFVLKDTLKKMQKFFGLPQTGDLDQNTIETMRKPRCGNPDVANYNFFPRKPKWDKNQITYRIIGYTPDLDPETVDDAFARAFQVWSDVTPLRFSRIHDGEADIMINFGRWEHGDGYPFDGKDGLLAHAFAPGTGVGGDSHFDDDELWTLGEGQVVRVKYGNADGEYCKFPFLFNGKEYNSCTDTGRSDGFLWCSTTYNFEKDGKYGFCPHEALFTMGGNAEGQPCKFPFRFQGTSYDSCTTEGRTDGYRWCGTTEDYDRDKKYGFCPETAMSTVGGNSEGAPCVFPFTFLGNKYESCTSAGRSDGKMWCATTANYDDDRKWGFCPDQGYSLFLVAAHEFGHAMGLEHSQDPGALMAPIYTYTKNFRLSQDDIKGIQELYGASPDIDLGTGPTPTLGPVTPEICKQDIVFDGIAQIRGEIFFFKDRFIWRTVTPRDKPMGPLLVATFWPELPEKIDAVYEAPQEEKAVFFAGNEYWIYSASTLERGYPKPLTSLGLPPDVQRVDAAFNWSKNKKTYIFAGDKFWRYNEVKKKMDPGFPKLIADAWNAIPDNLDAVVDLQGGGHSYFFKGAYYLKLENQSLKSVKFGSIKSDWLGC
DNA dC->dU-editing enzyme APOBEC-3G, sequence (Q9HC16 whole entry): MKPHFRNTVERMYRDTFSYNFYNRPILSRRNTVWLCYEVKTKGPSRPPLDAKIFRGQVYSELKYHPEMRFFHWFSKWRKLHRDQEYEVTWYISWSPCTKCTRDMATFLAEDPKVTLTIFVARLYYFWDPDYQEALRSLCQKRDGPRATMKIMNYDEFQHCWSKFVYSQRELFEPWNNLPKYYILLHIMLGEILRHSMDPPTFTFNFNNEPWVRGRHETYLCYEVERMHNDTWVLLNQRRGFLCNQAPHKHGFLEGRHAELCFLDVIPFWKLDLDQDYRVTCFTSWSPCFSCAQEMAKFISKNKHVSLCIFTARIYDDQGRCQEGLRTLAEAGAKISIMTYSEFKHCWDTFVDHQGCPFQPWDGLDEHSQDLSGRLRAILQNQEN
Cytochrome P450 3A4, sequence (P08684 whole entry): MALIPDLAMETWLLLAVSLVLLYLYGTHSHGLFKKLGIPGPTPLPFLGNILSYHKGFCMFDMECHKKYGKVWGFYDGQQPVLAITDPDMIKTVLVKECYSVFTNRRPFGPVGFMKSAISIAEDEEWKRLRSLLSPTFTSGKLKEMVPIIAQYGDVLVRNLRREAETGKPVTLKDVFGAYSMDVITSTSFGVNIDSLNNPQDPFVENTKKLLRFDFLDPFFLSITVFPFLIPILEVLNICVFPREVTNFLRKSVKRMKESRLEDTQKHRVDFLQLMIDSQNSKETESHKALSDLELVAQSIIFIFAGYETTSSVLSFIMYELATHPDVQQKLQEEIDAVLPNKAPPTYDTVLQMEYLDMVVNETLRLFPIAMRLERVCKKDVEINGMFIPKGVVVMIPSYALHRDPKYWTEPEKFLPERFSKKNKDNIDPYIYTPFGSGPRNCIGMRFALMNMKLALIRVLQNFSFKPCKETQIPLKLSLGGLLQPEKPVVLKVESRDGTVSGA
Paired box protein Pax-8, sequence (Q06710 whole entry): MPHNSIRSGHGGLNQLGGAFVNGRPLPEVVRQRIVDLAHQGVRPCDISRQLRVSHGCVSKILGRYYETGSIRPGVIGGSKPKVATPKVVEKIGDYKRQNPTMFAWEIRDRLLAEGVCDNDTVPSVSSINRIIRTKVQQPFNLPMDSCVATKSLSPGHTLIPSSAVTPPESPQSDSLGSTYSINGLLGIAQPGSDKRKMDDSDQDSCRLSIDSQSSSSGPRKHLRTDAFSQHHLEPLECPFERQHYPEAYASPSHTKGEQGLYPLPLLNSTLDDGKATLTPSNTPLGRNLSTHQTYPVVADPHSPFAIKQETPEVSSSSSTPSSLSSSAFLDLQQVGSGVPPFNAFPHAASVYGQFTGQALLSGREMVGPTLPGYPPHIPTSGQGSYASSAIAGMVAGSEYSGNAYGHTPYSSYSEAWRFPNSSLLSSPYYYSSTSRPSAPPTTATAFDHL
Cytochrome P450 2C19, sequence (P33261 whole entry): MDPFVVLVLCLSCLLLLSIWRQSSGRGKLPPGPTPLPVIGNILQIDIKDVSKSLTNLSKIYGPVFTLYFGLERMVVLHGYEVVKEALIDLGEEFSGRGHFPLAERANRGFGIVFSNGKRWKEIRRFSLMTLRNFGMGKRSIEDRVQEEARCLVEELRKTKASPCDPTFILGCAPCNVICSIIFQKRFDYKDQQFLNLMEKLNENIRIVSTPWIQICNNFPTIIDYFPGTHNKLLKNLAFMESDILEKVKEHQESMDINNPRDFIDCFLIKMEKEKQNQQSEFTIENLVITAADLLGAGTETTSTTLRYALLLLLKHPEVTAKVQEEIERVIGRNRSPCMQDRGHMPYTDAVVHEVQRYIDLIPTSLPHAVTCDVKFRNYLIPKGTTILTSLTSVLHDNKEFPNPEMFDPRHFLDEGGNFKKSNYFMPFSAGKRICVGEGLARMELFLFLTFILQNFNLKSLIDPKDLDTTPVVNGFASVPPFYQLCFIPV
DNA dC->dU-editing enzyme APOBEC-3A, sequence (P31941 whole entry): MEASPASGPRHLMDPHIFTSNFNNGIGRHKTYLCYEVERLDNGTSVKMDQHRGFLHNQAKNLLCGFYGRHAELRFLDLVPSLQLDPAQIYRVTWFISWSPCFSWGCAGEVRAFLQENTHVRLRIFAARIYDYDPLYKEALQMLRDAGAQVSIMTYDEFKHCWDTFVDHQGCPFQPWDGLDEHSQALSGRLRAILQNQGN
Luciferin 4-monooxygenase, sequence (P08659 whole entry): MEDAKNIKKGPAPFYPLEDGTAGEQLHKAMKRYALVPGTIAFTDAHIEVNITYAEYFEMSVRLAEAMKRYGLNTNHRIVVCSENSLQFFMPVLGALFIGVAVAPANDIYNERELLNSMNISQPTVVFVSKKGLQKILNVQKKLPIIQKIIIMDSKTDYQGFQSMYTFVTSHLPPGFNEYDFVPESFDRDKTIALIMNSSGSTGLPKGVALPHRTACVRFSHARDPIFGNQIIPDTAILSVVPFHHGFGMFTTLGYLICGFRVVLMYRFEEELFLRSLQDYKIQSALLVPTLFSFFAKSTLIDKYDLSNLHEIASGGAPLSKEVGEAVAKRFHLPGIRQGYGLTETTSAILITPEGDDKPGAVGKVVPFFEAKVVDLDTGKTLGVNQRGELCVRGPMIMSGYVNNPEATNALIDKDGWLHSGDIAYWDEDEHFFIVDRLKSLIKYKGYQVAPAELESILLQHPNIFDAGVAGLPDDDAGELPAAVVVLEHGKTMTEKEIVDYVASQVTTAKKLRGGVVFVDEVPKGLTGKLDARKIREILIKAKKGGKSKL
Induced myeloid leukemia cell differentiation protein Mcl-1, sequence (Q07820 whole entry): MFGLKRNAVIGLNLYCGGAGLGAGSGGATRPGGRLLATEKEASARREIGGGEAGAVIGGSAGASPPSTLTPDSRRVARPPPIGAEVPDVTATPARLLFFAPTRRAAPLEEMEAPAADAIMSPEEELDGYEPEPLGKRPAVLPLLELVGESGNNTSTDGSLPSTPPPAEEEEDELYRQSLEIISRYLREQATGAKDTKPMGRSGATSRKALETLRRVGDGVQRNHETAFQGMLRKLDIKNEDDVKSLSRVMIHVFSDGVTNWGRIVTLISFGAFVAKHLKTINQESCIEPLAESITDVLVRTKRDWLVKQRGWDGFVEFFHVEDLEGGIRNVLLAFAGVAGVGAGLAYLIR

Consider `COc1cccc2cc(C(=O)Nc3ccc(F)cc3)/c(=N/c3ccc(C(=O)O)cc3)oc12`, for which the concentration for half-maximal inhibition (IC50) in data set [1] is 48.2 µM (active); in data set [2], > 100 µM (inactive); in data set [3], 21.7 µM (active).
Regarding `O=C(c1ccccc1)C(CCC(CN1CCOCC1)C(=O)c1ccccc1)CN1CCOCC1` (centres undefined), the concentration for a half-maximal effect (EC50) in [4] was 6.43 µM (active); in [8], 11.1 µM (active). Moreover, the half-maximal activity concentration (AC50) in data set [5] was 12.6 µM (active); in [6], 6.35 µM (active); in data set [7], 12.8 µM (active); in data set [9] it was > 120 µM (inactive); in data set [10], 11.9 µM (active).
As to `O=C(Nc1ccc2c(c1)CCC2)c1cc(S(=O)(=O)N2CCN(c3ccccc3)CC2)ccc1Cl`, the figures for the half-inhibitory concentration (IC50) in data set [1], in [2] and in data set [3] were 50.9 µM (active), > 100 µM (inactive) and 31.6 µM (active), respectively.
Take `COc1cc(C2C(C#N)=C(N)Oc3cc4c(cc32)OCO4)cc(OC)c1OC` (centres undefined): the AC50 in data set [11] was 0.553 µM (active); in data set [13], 0.365 µM (active). Further, in data set [12], the IC50 is > 80 µM (inactive).
For `COc1ccccc1C1=NOC(COC(=O)c2ccc3ccccc3n2)C1` (centres undefined), the AC50 entry in data set [14] was “inconclusive”.
Take `COc1ccc(C(=O)NCc2cn3ccccc3n2)cc1`: the AC50 in [15] is 28.2 µM (inconclusive); in [16] it was 20 µM (inconclusive); in [14], “inconclusive”.
On to `NC1=NC(=O)/C(=C/c2cn(CCC(=O)O)nc2-c2ccc(Cl)cc2)S1`, for which the 50% inhibitory concentration (IC50) was 4.92 µM (active) in data set [17], 44.7 µM (active) in data set [1], > 100 µM (inactive) in data set [2] and 40.4 µM (active) in [3].
Take `Cc1ccc(-n2nnnc2Sc2nc([N+](=O)[O-])nn2C)c(C)c1`: the AC50 in data set [13] is 39.6 µM (active).
As for `COC(=O)C1=C(C)N(Cc2ccccc2)C(NCC(C)C)=N[C@H]1c1cccc(C(F)(F)F)c1`, the IC50 in data set [18] was > 20 µM (inactive); in data set [19], 2.88 µM (active); in data set [20], 4.22 µM (active). Besides, the AC50 in data set [13] is 15 µM (active).
For the compound `COC(=O)c1[nH]c2ccc(Br)cc2c1NC(=O)CN1CCN(C2CCCCC2)CC1`, the EC50 in data set [4] was > 20 µM (not active); in [21] it was 7.79 µM (active); in data set [8], > 20 µM (not active); in data set [22] it was 12.9 µM (active); in [23], 12.2 µM (active). Also, the IC50 in data set [12] was 22.4 µM (inactive).
For `COc1ccc(Cc2c(-c3ccc(C)cc3)nc3ccc(Cl)cn23)c(C)c1`, the 50% inhibitory concentration (IC50) in data set [1] is 27.1 µM (active); in [2], 92.4 µM (active); in data set [3] it was 22.2 µM (active).
Regarding `COc1ccccc1CC(=N)NOC(=O)c1ccc(C)c([N+](=O)[O-])c1`, in [14], the AC50 result is “inconclusive”.
For the compound `COc1ccc(C(=O)/N=c2\nc3ccccn3s2)cc1`, the 50% effective concentration (EC50) in data set [24] was 1.07 µM (active); in [25], 5.24 µM (active). Also, the half-maximal activity concentration (AC50) in data set [6] is 0.768 µM (active).
Take `CCN(CC)C(=O)C(=O)N/N=C/c1cccc(Br)c1`: the AC50 result in data set [14] is on record as “inconclusive”.
Regarding `COC(=O)[C@@]1(Cc2ccccc2)[C@H]2C(=O)N(Cc3ccccc3)C(=O)[C@H]2[C@H]2CN=C(SCc3ccc(Cl)cc3)N21`, the concentration at half-maximal activity (AC50) in data set [6] is 6.5 µM (active).
Turning to `O=C(C#Cc1ccccc1)c1cccc([N+](=O)[O-])c1`, the half-maximal activity concentration (AC50) was 0.75 µM (active) in data set [26] and 3.62 µM (active) in [13]. Further, the concentration giving a half-maximal response (EC50) in data set [27] is > 260 µM (inconclusive).
Turning to `O=C1C=Cc2cccc3ccc(O)c1c23`, the concentration at half-maximal activity (AC50) in [6] was 18.1 µM (active).
Take `Cn1nc(C(F)(F)F)c(/C=N/OC(=O)c2ccccc2)c1Cl`: the half-maximal activity concentration (AC50) result in data set [14] was “inactive”.
